Reference: patent publication US20260251650A1, “LATERAL FLOW DEVICE FOR […]'S DISEASE USING THE T14 PEPTIDE” (Neuro-Bio Ltd, priority 2022, published 2026)

Experiments:
[1] = tested on: anti-T14 antibody 40 nm gold conjugates; experiment: Inhibition lateral flow test (half dipstick), peptide dotted on membrane; format: binding, rabbit; conditions: peptide dotted at 1, 0.5 and 0.25 mg/ml on CN180 membrane, FIG. 10
Method: (§1) The detector reagent was a 40 nm gold particle which is passively conjugated to the antibodies. Conjugates were prepared for: AB16 (rabbit polyclonal), AB117 (rabbit monoclonal) and AB104 (rabbit monoclonal).
(§2) In this format, a gold conjugate is in liquid form (in the well) rather than dry enabling high throughput of the test conditions. The test line is “dotted” onto the membrane by pipette to facilitate evaluation of a range of conditions.
The nitrocellulose membrane was CN180.
(§3) • A) Inhibition Assay: T14 peptide • T30 peptide • B) Sandwich Assay: Rabbit polyclonal, AB16 • Rabbit monoclonal, AB117 • Rabbit monoclonal, AB104 • Rabbit monoclonal, AB102
Peptide (T14 or T30) was diluted to 1, 0.5 and 0.25 mg/ml in deionised water. The peptide was “dotted” onto CN180 nitrocellulose membrane (1 μl at each concentration) and the membrane dried for 15 minutes at 37° C. The goat anti-rabbit antibody was applied to the membrane as a control line.
• (i) 20 μl gold conjugate (neat) and 20 μl TBST (Tris buffered saline 1% Tween 20) added to Well 1; • (ii) The dipstick was added to Well 1; • (iii) The dipstick was run to completion (no liquid remaining); and • (iv) The dipstick was added to Well 2 containing 20 μl TBST only to wash the test strip.

[2] = tested on: anti-T14 antibodies (conjugate and test line); experiment: Sandwich lateral flow test (half dipstick), peptide detection; format: binding, rabbit; conditions: peptide at 0.1 mg/ml, FIG. 11
Method: as §1, §2, §3
Each antibody was “dotted” onto CN180 membrane (1 μl neat, i.e. 1 mg/ml, concentration) and the membrane dried for 15 mins at 37° C. The goat anti-rabbit antibody was applied to the membrane as a control line. Conjugate and test line antibody combinations were then evaluated in a matrix study in the lateral flow format.
• (i) 10 μl peptide (either T14 or T30 at 0.1 mg/ml) and 10 μl TBST (Tris buffered saline 1% Tween 20) added to Well 1; • (ii) The dipstick was added to Well 1; • (iii) The dipstick was run to completion (no liquid remaining); • (iv) The dipstick was added to Well 2 containing 20 μl conjugate; • (v) The dipstick was run to completion (no liquid remaining); and • (vi) The dipstick was added to Well 3 containing 20 μl TBST.

With “AEFHRWSSYMVHWK (listed as Homo sapiens) [T14, 14 amino acid peptide derived from the C-terminus of acetylcholinesterase; biomarker]” the “detection of peptide by inhibition LFT” value [1] was “able to detect” and the “detection of peptide by sandwich LFT” value [2] was “able to detect”.

For “KAEFHRWSSYMVHWKNQFDHYSKQDRCSDL (KAEFHRWSSYMVHWKNQFHDYSKQDRCSDL; listed as Homo sapiens) [T30, last 30 amino acid residues of tailed acetylcholinesterase]”, the “detection of peptide by inhibition LFT” value [1] was “able to detect” and the “detection of peptide by sandwich LFT” value [2] was “able to detect”.
